In ChEMBL document CHEMBL4354803, “Synthesis and biological activity of structurally diverse phthalazine derivatives: A systematic review” (Bioorg Med Chem, 2019):
One block for each molecule: values may come before it.

How the values were obtained:
Prostaglandin E synthase = biological target: T1, Prostaglandin E synthase (Homo sapiens, UniProt O14684); assay: Inhibition of mPGES-1 in human A549 cells assessed as reduction in […] induced PGE2 release preincubated for 30 mins followed by […] addition and measured after 16 to 20 hrs by HTRF assay; format: cell-based
T1 sequence (O14684 whole entry): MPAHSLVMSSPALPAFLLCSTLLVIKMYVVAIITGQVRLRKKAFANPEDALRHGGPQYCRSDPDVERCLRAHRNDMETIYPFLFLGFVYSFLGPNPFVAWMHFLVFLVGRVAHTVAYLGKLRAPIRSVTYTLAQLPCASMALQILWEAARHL

MDA-MB-468 = assay: Growth inhibition of human MDA-MB-468 cells after 7 days by CCK-8 method; format: functional, cell-based; conditions: MDA-MB-468, 168 h
CAPAN-1 = assay: Growth inhibition of human Capan1 cells after 7 days by CCK-8 method; format: functional, cell-based; conditions: CAPAN-1, 168 h
[1] = Inhibition of human HeLa cell derived PARP preincubated for 10 mins followed by NAD and double stranded DNA-oligos addition and measured after 45 mins by scintillation counting; format: cell-based
[2] = biological target: T2, NAD-dependent protein deacetylase sirtuin-1 (Homo sapiens) (UniProt Q96EB6); assay: Modulation of SIRT1 (unknown origin) expressed in Escherichia coli BL21(DE3) cells using Ac-EE-K(biotin)-GQSTSSHSK(Ac)NleSTEG-K(5TMR)-EE-NH2 as substrate after 25 mins by mass spectrometry
T2 sequence (whole entry): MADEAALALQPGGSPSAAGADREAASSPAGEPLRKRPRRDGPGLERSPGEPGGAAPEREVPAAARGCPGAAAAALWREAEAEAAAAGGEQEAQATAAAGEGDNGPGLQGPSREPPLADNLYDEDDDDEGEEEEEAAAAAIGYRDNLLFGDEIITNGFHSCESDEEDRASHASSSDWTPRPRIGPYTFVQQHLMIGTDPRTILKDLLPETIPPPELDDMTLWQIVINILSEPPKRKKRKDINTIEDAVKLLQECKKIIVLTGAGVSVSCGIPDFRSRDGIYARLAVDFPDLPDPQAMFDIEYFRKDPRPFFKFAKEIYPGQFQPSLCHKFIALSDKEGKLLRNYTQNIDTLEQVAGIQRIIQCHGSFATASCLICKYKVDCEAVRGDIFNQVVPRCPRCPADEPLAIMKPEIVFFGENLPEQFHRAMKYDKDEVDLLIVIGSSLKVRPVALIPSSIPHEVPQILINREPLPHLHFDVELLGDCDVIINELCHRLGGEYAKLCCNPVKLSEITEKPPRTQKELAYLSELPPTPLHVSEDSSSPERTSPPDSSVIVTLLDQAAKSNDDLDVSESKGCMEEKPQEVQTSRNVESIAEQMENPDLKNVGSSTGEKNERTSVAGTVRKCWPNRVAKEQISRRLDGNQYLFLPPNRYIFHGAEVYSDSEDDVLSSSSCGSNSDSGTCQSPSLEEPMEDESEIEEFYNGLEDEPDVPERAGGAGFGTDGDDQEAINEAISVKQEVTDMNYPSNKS

[3] = Induction of mouse primary oligodendrocytes incubated for 16 to 24 hrs by WSTl reagent based assay; format: functional
HUVEC = assay: Induction of HUVEC proliferation incubated for 20 hrs followed by 3H thymidine incorporation and measured after 4 hrs by beta counting method; format: functional, cell-based; conditions: Homo sapiens
Mus musculus [4] = assay: Anticonvulsant activity in ip dosed mouse assessed as protection against PTZ-induced seizure; format: functional
PC-3 = assay: Cytotoxicity against human PC3 cells after 24 hrs by MTT assay; format: functional, cell-based; conditions: PC-3, 24 h
HepG2 [5] = assay: cells; conditions: Homo sapiens, HepG2, 24 h
Description: Cytotoxicity against human HepG2 cells after 24 hrs by MTT assay

[6] = biological target: T3, Aldo-keto reductase family 1 member B1 (Homo sapiens, UniProt P15121); assay: Inhibition of human Aldose reductase
Aurora kinase A = biological target: T4, Aurora kinase A (Homo sapiens, UniProt O14965); assay: Inhibition of C-terminal His4-tagged Aurora A (unknown origin) using PKB-GSK2 biotinylated peptide as substrate incubated for 90 mins by ELISA
T4 sequence (O14965 whole entry): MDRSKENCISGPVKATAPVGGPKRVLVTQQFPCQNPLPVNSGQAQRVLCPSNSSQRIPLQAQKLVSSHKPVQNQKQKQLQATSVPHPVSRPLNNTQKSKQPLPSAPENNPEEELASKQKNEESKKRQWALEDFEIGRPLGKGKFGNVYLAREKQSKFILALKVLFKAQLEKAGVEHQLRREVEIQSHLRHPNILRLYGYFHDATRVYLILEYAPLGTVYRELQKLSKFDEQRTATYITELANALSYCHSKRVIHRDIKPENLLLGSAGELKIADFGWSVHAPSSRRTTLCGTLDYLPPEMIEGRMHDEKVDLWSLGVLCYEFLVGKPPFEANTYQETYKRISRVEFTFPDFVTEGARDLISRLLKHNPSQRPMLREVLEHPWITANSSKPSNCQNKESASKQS

HCT-116 = assay: Antiproliferative activity against human HCT116 cells after 5 days by CellTiter-Glo Luminescent Cell Viability Assay; format: functional, cell-based; conditions: HCT-116, 120 h
[7] = biological target: T5, Poly [ADP-ribose] polymerase 1 (Homo sapiens, UniProt P09874); assay: Inhibition of human PARP1 expressed in Escherichia coli using histone as substrate by ELISA
T5 sequence (P09874 whole entry): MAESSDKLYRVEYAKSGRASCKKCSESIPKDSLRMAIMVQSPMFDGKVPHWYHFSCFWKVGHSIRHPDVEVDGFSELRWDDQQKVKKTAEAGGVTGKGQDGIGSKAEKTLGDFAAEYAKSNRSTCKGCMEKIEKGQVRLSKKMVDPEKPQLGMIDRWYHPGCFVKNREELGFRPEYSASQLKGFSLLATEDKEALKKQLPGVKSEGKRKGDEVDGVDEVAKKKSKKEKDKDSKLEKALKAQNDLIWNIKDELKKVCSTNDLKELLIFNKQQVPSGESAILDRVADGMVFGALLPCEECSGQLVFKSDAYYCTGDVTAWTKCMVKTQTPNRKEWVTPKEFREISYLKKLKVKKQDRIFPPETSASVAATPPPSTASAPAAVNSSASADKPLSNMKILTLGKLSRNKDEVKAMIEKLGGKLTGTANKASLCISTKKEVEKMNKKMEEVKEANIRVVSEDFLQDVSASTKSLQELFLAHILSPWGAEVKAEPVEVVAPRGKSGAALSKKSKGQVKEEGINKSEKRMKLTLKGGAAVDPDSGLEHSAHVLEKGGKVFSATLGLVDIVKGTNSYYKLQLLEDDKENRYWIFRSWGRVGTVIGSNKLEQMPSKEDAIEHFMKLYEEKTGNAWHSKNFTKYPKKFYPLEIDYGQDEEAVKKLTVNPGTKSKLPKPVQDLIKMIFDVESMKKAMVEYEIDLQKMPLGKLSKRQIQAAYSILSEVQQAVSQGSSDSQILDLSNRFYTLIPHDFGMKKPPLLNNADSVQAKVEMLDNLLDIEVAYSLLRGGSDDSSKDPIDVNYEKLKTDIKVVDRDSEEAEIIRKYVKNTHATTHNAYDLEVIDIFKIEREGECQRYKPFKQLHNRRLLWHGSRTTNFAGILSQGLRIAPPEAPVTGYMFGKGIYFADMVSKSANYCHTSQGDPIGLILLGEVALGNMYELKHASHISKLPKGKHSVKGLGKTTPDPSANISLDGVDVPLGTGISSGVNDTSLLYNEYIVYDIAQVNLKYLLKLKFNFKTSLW

Mus musculus [8] = assay: Antinociceptive activity in Balb/c mouse at 20 mg/kg, ip after 120 mins by tail flick test relative to control; format: functional
Mus musculus [9] = assay: Antinociceptive activity in Balb/c mouse at 20 mg/kg, ip after 180 mins by tail flick test relative to control; format: functional
Rattus norvegicus = assay: In vivo inhibition of Aldose reductase in streptozotocin-induced po dosed rat model of diabetes assessed as reduction in sorbitol accumulation in sciatic nerve administered at 4,7,24 hrs and measured at 27 hrs; format: functional
Mus musculus [10] = species: Mus musculus; assay: animal or person; conditions: ICR, ip
Mus musculus [11] = assay: Potency index, ratio of valproate ED50 to compound ED50 for Anticonvulsant activity in ip dosed ICR mouse assessed as protection against 50 mA current-induced seizure pretreated for 30 mins followed by seizure induction measured for 60 mins by maximal electroshock seizure test; format: functional
[12] = biological target: T5, Poly [ADP-ribose] polymerase 1; assay: Inhibition of human PARP1 expressed in Escherichia coli incubated for 15 to 40 mins by ELISA
HepG2 [13] = assay: Cytotoxicity against human HepG2 cells incubated for 48 hrs by sulforhodamine B staining based ELISA; format: functional, cell-based; conditions: HepG2, 48 h
Ehrlich = assay: Antitumor activity against mouse EAC cells implanted in Swiss albino mouse assessed as reduction in tumor growth at 5 mg/kg, ip dosed daily starting 6 days after inoculation; format: functional, organism-based; conditions: 144 h
[14] = biological target: T3, Aldo-keto reductase family 1 member B1
Description: Inhibition of human placenta Aldose reductase

SMILES: O=C(Nc1ccc2cnn(-c3ccc(Br)cc3)c(=O)c2c1)c1c(F)cccc1Cl
IC50 (Prostaglandin E synthase): < 50 nM

SMILES: CC1NC(=O)N(c2cccc(Cc3n[nH]c(=O)c4ccccc34)c2)C1=O (centres undefined)
IC50 [1]: 5 nM

SMILES: O=c1[nH]nc(-c2ccc(N3CCCCCC3)c([N+](=O)[O-])c2)c2ccccc12
EC50 [3]: 200 nM
EC50 (HUVEC): 2500 nM

SMILES: O=C(O)Cc1nn(Cc2nc3cc(C(F)(F)F)ccc3s2)c(=O)c2cc3ccccc3cc12
IC50 [6]: 46 nM

SMILES: CN1CC(=O)N(c2cccc(Cc3n[nH]c(=O)c4ccccc34)c2)C1=O
ED50 (Mus musculus [4]): 0.00166 µmol/kg
IC50 [1]: < 10 nM

SMILES: O=C(c1cc(Cc2n[nH]c(=O)c3ccccc23)ccc1F)N1CCN(c2ccccn2)CC1
IC50 [1]: 3 nM

SMILES: CN(C)CCn1nc(-c2ccncc2)c2ccccc2c1=O
MPE (Mus musculus [8]): 14.84%
MPE (Mus musculus [9]): 18.26%

SMILES: O=C(O)Cc1nn(Cc2nc3cc(Br)ccc3s2)c(=O)c2ccccc12
ED50 (Rattus norvegicus): 3.6 mg/kg

SMILES: CCOC(=O)CSc1nnc(Cn2[nH]c(=O)c3ccccc3c2=O)o1
ED50 (Mus musculus [10]): 193 µmol/kg

SMILES: COC(=O)CSc1nnc(Cn2[nH]c(=O)c3ccccc3c2=O)o1
Ratio ED50 (Mus musculus [11]): 10
ED50 (Mus musculus [10]): 172 µmol/kg

SMILES: CCCC(CCC)C(=O)O [VALPROIC ACID]
ED50 (Mus musculus [10]): 1710 µmol/kg

SMILES: O=C(c1cc(Cc2n[nH]c(=O)c3ccccc23)ccc1F)N1CC2C(=O)N(Cc3ccccc3)C(=O)C2C1 (centres undefined)
IC50 [12]: 0.5 nM

SMILES: O=C(Cn1nc(Cc2ccccc2)c2ccccc2c1=O)NNC(=S)Nc1ccccc1
IC50 (HepG2 [13]): 10 nM
IC50 (Ehrlich): 20 nM

SMILES: O=C(O)Cc1nn(Cc2cc(F)cc(Br)c2)c(=O)c2ccccc12
IC50 [6]: 20 nM

Second part, led by results:

IC50 (MDA-MB-468): 0.003 nM
SMILES: O=C(c1cc(Cc2n[nH]c(=O)c3ccccc23)ccc1F)N1CCn2c(nnc2C(F)F)C1
IC50 (CAPAN-1): 0.003 nM

EC1.5 [2]: < 5 µM
SMILES: O=C(Nc1cccc2cnn(-c3cccc(OC(F)(F)F)c3)c(=O)c12)c1cccc(CN2CCOCC2)n1

IC50 [1]: < 3 nM
SMILES: O=C1CCC(=O)N1c1cccc(Cc2n[nH]c(=O)c3ccccc23)c1
ED50 (Mus musculus [4]): 0.0016 µmol/kg

EC1.5 [2]: < 5 µM
SMILES: O=C(Nc1cccc2cnn(-c3cccc(C(F)(F)F)c3)c(=O)c12)c1cscn1

IC50 (HepG2 [5]): 17400 nM
SMILES: O=C(Cn1nc(Cc2ccccc2)c2ccccc2c1=O)NNS(=O)(=O)c1ccccc1
IC50 (PC-3): 19800 nM

IC50 [6]: 10 to 16 nM
SMILES: Cc1c(CC(=O)O)nn(Cc2nc3cc(C(F)(F)F)ccc3s2)c(=O)c1C

IC50 [1]: 2.8 nM
SMILES: CC1C(=O)N(c2cccc(Cc3n[nH]c(=O)c4ccccc34)c2)C(=O)N1CCN1CCCCC1 (centres undefined)

IC50 (Aurora kinase A): 420 nM
IC50 (HCT-116): 7 nM
SMILES: Cc1cc(Nc2nn(C(C)C)c(=O)c3cc(OCCN4CCOCC4)ccc23)n[nH]1

IC50 [7]: 2 nM
SMILES: CCN1CCCC2CN(C(=O)c3cc(Cc4n[nH]c(=O)c5ccccc45)ccc3F)CC21 (centres undefined)

IC50 [14]: 3.2 to 52 nM
SMILES: O=C(O)Cc1nn(Cc2nc3cc(F)cc(F)c3o2)c(=O)c2ccccc12
ED50 (Rattus norvegicus): 5.6 mg/kg
